Results as given in patent US8741659B2, “Composition for measuring the binding affinity between nucleic acid and test substance, and use thereof” (Osaka University, priority 2007, dated 2014).

Tests used:
RRE = assay: Displacement assay using Rev peptide after formation of complex with RRE; type: binding, HIV-1; conditions: compound and RRE each 2 μM, Rev protein 0-4.0 μM
Protocol: In this Example, a binding affinity between a test substance and RRE was evaluated, with use of the compounds, X2S, X2S(3), X2S(4), X2S(5), X2S(2-Me), and 3,6-X2S(2). As the test substance, Rev protein used in Example 5 was used.
Firstly, in the same manner as in Example 3, the above compounds and RREs were respectively dissolved in cacodylate buffer solutions (sodium cacodylate: 10 mM pH 7.0, NaCl: 100 mM) each at 2 μM, so that an X2S-RRE solution, an X2S(3)-RRE solution, an X2S(4)-RRE solution, an X2S(5)-RRE solution, an X2S(2-Me)-RRE solution, and a 3,6-X2S(2)-RRE solution were prepared.
To each of these solutions, Rev protein was added in stages at 0 μM, 0.4 μM, 0.8 μM, 1.2 μM, 1.6 μM, 2.0 μM, 2.4 μM, 2.8 μM, 3.2 μM, 3.6 μM, and 4.0 μM. Further, a fluorescence intensity was measured at each concentration. The fluorescence intensity was measured in the same manner as that described in Example 14.
Each of FIGS. 43 to 48 is a view illustrating a result of the measurement of a binding affinity between Rev protein and RRE. […] In each of FIGS. 43 to 48, the horizontal axis represents the fluorescence wavelength, whereas the vertical axis represents the fluorescence intensity. […] Further, along the direction of the arrow extending from the curved line at the bottom, the curved lines, showing the respective results, are arranged in order of increasing amount of the test substance which was added.
FIG. 49 is a view illustrating a relationship between an amount of Rev added and a fluorescence intensity, in connection with X2S, X2S(3), X2S(4), X2S(5), X2S(2-Me), and 3,6-X2S(2). Further, FIG. 49 is also a view plotting, based on the results illustrated in FIGS. 43 to 48, the fluorescence intensities detected at the fluorescence wavelength at which the respective fluorescence peaks were observed. FIG. 50 is a graph illustrating a relationship between an amount of Rev added and a recovery rate of the fluorescence intensity. In FIG. 49, the vertical axis represents the fluorescence intensity. In FIG. 50, the vertical axis represents the recovery rate of the fluorescence intensity. In each of FIGS. 49 and 50, the horizontal axis represents the amount of Rev added. That is, each of FIGS. 49 and 50 reflects amounts of the above compounds liberated from RREs due to the addition of Rev.
The recovery rate of the fluorescence intensity was obtained by dividing (i) a maximum value of the fluorescence intensity detected at each Rev concentration ranging from 0 μM to 4.0 μM in each of FIGS. 43 to 48 by (ii) a maximum value of the fluorescence intensity of the curved line at the top in each of FIGS. 43 to 48.
In this Example, 1-Pyrenemethanamide, hydrochloride was used to measure a binding affinity between a test substance and RRE. As the test substance, Rev protein used in Example 5 was used.
Firstly, in the same manner as in Example 3, 1-Pyrenemethanamide, hydrochloride and RRE were dissolved in a cacodylate buffer solution (sodium cacodylate: 10 mM, pH 7.0; NaCl: 100 mM) each at 2 μM, so that a 1-Pyrenemethanamide, hydrochloride-RRE solution was prepared.
To the solution, Rev protein was added in steps at 0 μM, 0.4 μM, 0.8 μM, 1.2 μM, 1.6 μM, 2.0 μM, 2.4 μM, 2.8 μM, 3.2 μM, 3.6 μM, and 4.0 μM. Further, the solution at each concentration was irradiated with light having an excitation wavelength of 340 nm, and a fluorescence intensity was measured. A device used for measuring a fluorescence intensity and a variation in a slit width were the same as those in Example 13.
FIG. 55 is a view illustrating a result of the measurement of a binding affinity between Rev protein and RRE. The horizontal axis represents the fluorescence wavelength, whereas the vertical axis represents the fluorescence intensity. […] Further, along a bottom-to-top direction, the curved lines, showing the respective results, are arranged in order of increasing amount of the test substance which was added. […]

[1] = system: RNAs of FIG. 2 (SEQ ID NOs: 1 through 3), with or without bulge structure; assay: Evaluation of binding between xanthone fluorescent molecule and RNA (fluorescence before and after mixing RNA); conditions: 10 μM compound, 30 μM RNA (A, U, C, G bulge or no bulge), cacodylate buffer pH 7.0, NaCl 100 mM
Protocol: Next, binding between X2S and RNAs was evaluated. The RNAs used in the present example had the structure illustrated in FIG. 2. FIG. 2 is a diagram schematically illustrating the structure of the RNAs used in the present example. The RNAs used in the present example had sequences shown in SEQ ID NOs: 1 through 3.
The symbol N in FIG. 2 represents either a base out of A, U, C, and G, or no base. Thus, in a case where a particular RNA as in FIG. 2 has N representing a base out of A, U, C, and G, the RNA is an RNA formed by hybridization of an RNA having the base sequence shown in SEQ ID NO: 1 with a single strand RNA having the base sequence shown in SEQ ID NO: 2. On the other hand, in a case where a particular RNA as in FIG. 2 has N representing no base, the RNA is an RNA formed by hybridization of an RNA having the base sequence shown in SEQ ID NO: 1 with an RNA having the base sequence shown in SEQ ID NO: 3.
This also applies to other bases. The RNAs used in the present example were purchased from Hokkaido System Science Co., Ltd.
Firstly, X2S was mixed in a cacodylate buffer solution (sodium cacodylate: 10 mM, pH 7.0; NaCl: 100 mM) at 10 μM, so that an X2S solution was obtained. The X2S solution was irradiated with light having an absorption maximum of 371±3 nm, and a fluorescence intensity was then measured. The fluorescence intensity was measured with use of a device (product number: RF-5300PC) available from Shimadzu Corporation. For each type of the RNAs, the fluorescence intensity was measured after the RNA was mixed in the X2S solution at 30 μM.
FIGS. 3 and 4 compare the fluorescence intensities measured before and after the RNA was mixed. […] The horizontal axis represents the fluorescence wavelength, whereas the vertical axis represents the fluorescence intensity. FIG. 4 is an enlarged graph corresponding to the fluorescence intensity of 5 A.U. in FIG. 3 and its vicinity.
Binding between X1S and RNAs was evaluated by a method identical to the method described in Example 2, except that X1S was used instead of X2S. […]

NCCOc1ccc2oc3ccc(OCCN)cc3c(=O)c2c1 [X2S, 2,7-bis(2-aminoethoxy)xanthen-9-one]
fluorescence intensity in displacement assay (RRE): high
recovery rate of the fluorescence intensity (RRE): good
binding to RNAs [1]: capable of binding to RNAs having various structures
